In US5597922A, “Glycine receptor antagonist pharmacophore” (priority 1994, dated 1997):
pIC50, pKd, pKi: −log10 of the molar value. Read-outs that look alike come from different tables or passages of the source.

Key:
glycine/NMDA receptor = biological target: T1, glycine/NMDA receptor (Rattus norvegicus, UniProt P35439); assay: inhibition of 1 μM glycine-stimulated [3H]-MK801 binding in rat brain membrane homogenates (glycine/NMDA receptor antagonist activity); conditions: for potency relative to DCK (% of DCK): relative to 5,7-dichlorokynurenic acid (DCK); for activity as antagonist for the glycine/NMDA receptor (in words): in vitro binding assay; for pKi: calculated from IC50 by Cheng and Prusoff equation
T1 construct: rat brain membrane homogenates which are enriched in NMDA receptors; tissue Pel-Freez, Rogers, Ark; (frozen rat brains); host or cells: rat brain membrane homogenates
Protocol: This assay takes advantage of the fact that the binding of [^3 H]-MK801 to the PCP receptor inside the pore of the NMDA channel is dependent on the presence of both glutamate and glycine. In the absence of glycine but in the presence of glutamate, [^3 H]-MK801 cannot bind effectively to the PCP receptor, because the NMDA channel remains closed and access of [^3 H]-MK801 to the PCP receptor inside the closed channel pore is severely restricted.
The assay is conducted using rat brain membrane homogenates which are enriched in NMDA receptors. The membranes are prepared as follows. Frozen rat brains (obtained from Pel-Freez, Rogers, Ark.) are homogenized in 15 volumes (w/v) of ice cold 0.32M sucrose. The homogenate is spun at 1,000×g for ten minutes. The supernatant is collected and spun for 20 minutes at 44,000×g. The pellet is suspended in 15 volumes of water (relative to original brain weight). The homogenate is again spun at 44,000×g for twenty minutes. The pellet is resuspended in 5 volumes of water and the suspension is freeze-thawed 2 times. After the final thaw cycle, the suspension is brought to 15 volumes with water and spun at 44,000×g for twenty minutes. The pellet is resuspended in 5 volumes of ice-cold […] HEPES, and is titrated to pH 7.4 with KOH containing 0.04% Triton X-100. Membranes are incubated with the Triton/HEPES buffer at 37° C. for 15 minutes. The volume is then brought to 15 with ice-cold 10 mM HEPES, pH 7.4, and spun/washed three times with spins of 44,000×g between washes. The final pellet is suspended in three volumes of 50 mM HEPES, pH 7.4 and the protein concentration is determined with a standard dye-binding protein assay (Bio-Rad, Richmond, Calif.). The suspension is stored at -80° C. until used. Only HPLC grade water is used for all buffers and suspensions/washings. The extensive washings are necessary to remove as much endogenous glycine from the membrane preparation as possible.
Nonspecific binding is defined as the […] presence of PCP (final concentration: 100 μM). To determine the effect of 1 μM glycine on the binding of [^3 H]-MK801, bound radioactivity in the presence of 10 μM glutamate alone (final concentration) is subtracted from the bound radioactivity in the presence of both 10 μM glutamate and 1 μM glycine (final concentration). A 500 nM concentration (final) of 5,7-dichlorokynurenic (DCK) acid is added to all assay tubes. This concentration of the glycine antagonist DCK "buffers" most of the residual endogenous glycine that is not removed by the extensive washing steps that are carried out during the membrane preparation procedure.
The assays are incubated for 120 minutes at room temperature after which time the membrane-bound radioactivity is isolated from the free radioactivity by vacuum filtration through Whatman glass fiber filters that had been pretreated with 0.3% polyethyleneimine. Filtration is accomplished using a Brandel 48 well cell harvester. Filtered membranes are washed three times with 3 mL each of ice cold buffer. Filters are transferred to scintillation vials and 5 mL of scintillation cocktail is added. The vials are shaken overnight and the radioactivity is counted by liquid scintillation spectroscopy. The assays are done in triplicate and all experiments are conducted at least three times.

[1] = in words; cited from earlier work
PCP receptor = conditions: Wong, E. H. F., et al. (1986); cited from earlier work
[2] = test system: glycine binding site of the NMDA receptor; conditions: Fletcher and Lodge (1988); cited from earlier work
[3] = 1 μM glycine-stimulated [3H]-MK801 binding, rat brain membranes, unit μm [sic], read-out: IC50
[4] = 1 μM glycine-stimulated [3H]-MK801 binding, rat brain membranes, read-out: IC50

SMILES: O=c1[nH]c2ccccc2c(=O)o1 [Compound 14a, Isatoic anhydride]
- pIC50 (glycine/NMDA receptor): 3.64
- potency relative to DCK (% of DCK) (glycine/NMDA receptor): 1.1%

SMILES: O=[N+]([O-])c1c(Br)c(Br)cc2nc(O)[nH]c12 [Example 50, 4-Nitro-5,6-dibromo-2-hydroxybenzimidazole]
- Potency relative to DCK (in words) (glycine/NMDA receptor; relative to DCK): inactive

SMILES: O=C(O)c1cc(O)c2ccc(Cl)cc2n1 [7-Cl-kynurenic acid]
- blood/brain barrier penetration [1]: cannot penetrate the blood/brain barrier

SMILES: O=C1Nc2cc(Cl)cc(Cl)c2C1=O [Compound 13d, 4,6-Dichloroisatin]
- activity as antagonist for the glycine/NMDA receptor (in words) (glycine/NMDA receptor): not to be active

SMILES: O=c1[nH]c2cc(Cl)c([N+](=O)[O-])c(Cl)c2c(=O)o1 [Compound 14d, 5,7-Dichloro-6(8)-nitroisatoic anhydride]
- potency relative to DCK (% of DCK) (glycine/NMDA receptor): 2.7%

SMILES: O=C1C=CC(=O)Nc2ccccc2N1 [Compound 43, 1H-6H-1,6-Benzodiazocine-2,5-dione]
- activity as antagonist for the glycine/NMDA receptor (in words) (glycine/NMDA receptor): inactive

SMILES: O=C1CNC(=O)c2ccccc2N1 [Compound 73a, 2,3,5-trihydro-1H,4H-1,4-Benzodiazepine-2,5-dione]
- pIC50 (glycine/NMDA receptor; [3]): 3.52
- potency relative to DCK (% of DCK) (glycine/NMDA receptor): 1.0%

SMILES: O=C1Nc2cc(Cl)c(Cl)cc2NC1[N+](=O)[O-] (stereo not shown) [Compound 33]
- pKi (glycine/NMDA receptor; unit μm [sic]): 6.66

SMILES: O=C1Nc2ccccc2C1=O [Compound 13, Isatin]
- activity as antagonist for the glycine/NMDA receptor (in words) (glycine/NMDA receptor): not to be active

SMILES: C[C@]12N[C@H](Cc3ccccc31)c1ccccc12 [MK-801]
- pKd (PCP receptor): ~8.52

SMILES: COc1cc2ccccc2[nH]c1=O [Compound 5, 3-Methoxy-2-quinolone]
- activity as antagonist for the glycine/NMDA receptor (in words) (glycine/NMDA receptor): inactive

SMILES: O=C1Nc2ccccc2C(=O)C1=O [Compound 12, Quinoline-2,3,4-trione]
- pIC50 (glycine/NMDA receptor; [4]): 4.30
- potency relative to DCK (% of DCK) (glycine/NMDA receptor): 5%

SMILES: NC1CCN(O)C1=O (stereo not shown) [HA-966]
- blood/brain barrier penetration [1]: sufficiently penetrates the blood/brain barrier
- affinity for the glycine binding site (in words) [2]: micromolar affinity
- type of activity at the glycine binding site (in words) [2]: partial agonist

SMILES: O=C(O)c1cc2ccccc2[nH]1 [indole-2-carboxylic acid]
- blood/brain barrier penetration [1]: cannot penetrate the blood/brain barrier

SMILES: Oc1nc2ccccc2c(O)c1O [Compound 11, 2,3,4-Trihydroxyquinoline]
- pIC50 (glycine/NMDA receptor; [4]): 4.22
- potency relative to DCK (% of DCK) (glycine/NMDA receptor): 4%

SMILES: O=c1[nH]c2ccccc2[nH]c1=O [QX, 1,4-dihydroquinoxaline-2,3-dione, reference compound]
- potency relative to DCK (% of DCK) (glycine/NMDA receptor): 2%

SMILES: O=C1Nc2cc(Cl)c([N+](=O)[O-])c(Cl)c2C1=O [Compound 13e, 4,6-Dichloro-5(7)-nitroisatin]
- pIC50 (glycine/NMDA receptor; [3]): 4.02
- potency relative to DCK (% of DCK) (glycine/NMDA receptor): 3%

SMILES: O=C(O)c1cc(=O)c2ccccc2o1 [Compound 19]
- activity as antagonist for the glycine/NMDA receptor (in words) (glycine/NMDA receptor): only partially active

SMILES: O=c1[nH]c2ccccc2oc1=O [Compound 2, 4,1-Benzoxazine;2,3-dione]
- pIC50 (glycine/NMDA receptor; [3]): 3.78
- potency relative to DCK (% of DCK) (glycine/NMDA receptor): 1.5%

SMILES: O=c1[nH]c2cc(Cl)c(Cl)cc2[nH]c1=NO [Compound 37, 6,7-Dichloro-3-(hydroxyimino)-1,4-dihydroquinoxalin-2-one]
- pKi (glycine/NMDA receptor): 6.52
